Source: patent publication US10526316B2, “Quinoxaline and pyridopyrazine derivatives as PI3Kβ inhibitors” (Janssen Pharmaceutica NV, priority 2015, dated 2020)
Where two headings read alike, the source gives them in different places.

What was measured:
[1] = test system: Akt phosphorylated at Thr308 in PC-3 cells; assay: Cellular assay: phosphorylation of Akt at Thr308 in PC-3 cells (MSD ELISA); assay type: cell-based; conditions: PC-3 cells, 60 min compound incubation, MSD ELISA, read-out: IC50 pAkt_Thr308
In short: (§1)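 PC-3 cells were exposed to compound or 0.3% DMSO for 60 min at 37° C, 5% CO2, then lysed in ice-cold buffer. Phospho-Akt was captured on site-specific antibody-coated plates and detected with Sulfo-tag anti-total Akt by electrochemiluminescence. IC50 values came from five-concentration response curves.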

[2] = molecular target: T1, kinase enzymes (Homo sapiens, UniProt P48736); assay: Enzyme binding assay (KINOMEscan, DiscoveRx), further kinases of Table A; conditions: PIK3Cγ_h
T1 construct: purchased DiscoveRx Corporation, San Diego (contract service, KINOMEscan)
In short: (§2)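 Compounds were profiled by KINOMEscan to obtain kinase binding affinities.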

[3] = molecular target: T2, kinase enzymes (Homo sapiens, UniProt P42336); assay: as above; conditions: PIK3Cα_h
T2 construct: purchased DiscoveRx Corporation, San Diego (contract service, KINOMEscan)
In short: as §2

[4] = molecular target: T3, kinase enzymes (Homo sapiens, UniProt P42345); assay: as above; conditions: MTOR_h
T3 construct: purchased DiscoveRx Corporation, San Diego (contract service, KINOMEscan)
In short: as §2

[5] = molecular target: T4, PI3Kδ (Homo sapiens, UniProt O00329); assay: Enzyme binding assay (KINOMEscan, DiscoveRx); conditions: PIK3Cδ_h
T4 construct: purchased DiscoveRx Corporation, San Diego (contract service, KINOMEscan)
T4 sequence (O00329 1-1044): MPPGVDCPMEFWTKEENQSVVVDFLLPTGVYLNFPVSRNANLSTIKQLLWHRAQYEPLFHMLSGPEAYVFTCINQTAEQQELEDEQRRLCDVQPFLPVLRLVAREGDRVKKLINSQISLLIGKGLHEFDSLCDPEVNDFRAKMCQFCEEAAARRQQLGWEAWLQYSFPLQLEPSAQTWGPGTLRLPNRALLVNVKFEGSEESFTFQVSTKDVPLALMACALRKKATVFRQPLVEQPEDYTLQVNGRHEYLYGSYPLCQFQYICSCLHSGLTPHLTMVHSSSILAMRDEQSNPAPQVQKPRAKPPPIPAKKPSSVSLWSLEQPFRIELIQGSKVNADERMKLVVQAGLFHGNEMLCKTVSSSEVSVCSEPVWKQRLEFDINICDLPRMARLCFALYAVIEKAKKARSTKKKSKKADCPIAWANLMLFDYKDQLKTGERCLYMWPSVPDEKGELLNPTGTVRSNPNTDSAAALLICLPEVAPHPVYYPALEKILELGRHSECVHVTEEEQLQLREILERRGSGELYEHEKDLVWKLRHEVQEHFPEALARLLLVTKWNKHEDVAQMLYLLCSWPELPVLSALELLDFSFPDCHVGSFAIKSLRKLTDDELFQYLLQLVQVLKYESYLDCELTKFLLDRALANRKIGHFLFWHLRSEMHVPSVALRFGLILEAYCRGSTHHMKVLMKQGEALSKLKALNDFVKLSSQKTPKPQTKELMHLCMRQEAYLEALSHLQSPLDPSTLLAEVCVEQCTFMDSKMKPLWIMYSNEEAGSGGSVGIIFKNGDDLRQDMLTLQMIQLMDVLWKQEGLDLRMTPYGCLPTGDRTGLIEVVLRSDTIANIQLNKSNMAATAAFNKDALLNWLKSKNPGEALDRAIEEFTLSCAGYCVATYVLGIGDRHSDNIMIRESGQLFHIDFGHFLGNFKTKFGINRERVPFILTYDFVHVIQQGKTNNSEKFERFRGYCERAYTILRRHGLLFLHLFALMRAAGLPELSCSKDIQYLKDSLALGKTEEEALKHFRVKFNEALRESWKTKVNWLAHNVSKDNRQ
In short: as §2

[6] = molecular target: T5, PI3Kβ (Homo sapiens, UniProt P42338); assay: Enzyme binding assay (KINOMEscan, DiscoveRx); conditions: PIK3Cβ_h, read-out: Kd PIK3Cβ_h
T5 construct: purchased DiscoveRx Corporation, San Diego (contract service, KINOMEscan)
In short: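 Compounds are profiled for binding to the kinase using KINOMEscan. The affinity is then reported as an inhibitor Kd in nanomolar units.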

[7] = test system: Akt phosphorylated at Ser473 in PC-3 cells; assay: Cellular assay: phosphorylation of Akt at Ser473 in PC-3 cells (MSD ELISA); assay type: cell-based; conditions: PC-3 cells, 60 min compound incubation, MSD ELISA, read-out: IC50 pAkt_S473
In short: as §1

T2 sequence (P42336 whole entry): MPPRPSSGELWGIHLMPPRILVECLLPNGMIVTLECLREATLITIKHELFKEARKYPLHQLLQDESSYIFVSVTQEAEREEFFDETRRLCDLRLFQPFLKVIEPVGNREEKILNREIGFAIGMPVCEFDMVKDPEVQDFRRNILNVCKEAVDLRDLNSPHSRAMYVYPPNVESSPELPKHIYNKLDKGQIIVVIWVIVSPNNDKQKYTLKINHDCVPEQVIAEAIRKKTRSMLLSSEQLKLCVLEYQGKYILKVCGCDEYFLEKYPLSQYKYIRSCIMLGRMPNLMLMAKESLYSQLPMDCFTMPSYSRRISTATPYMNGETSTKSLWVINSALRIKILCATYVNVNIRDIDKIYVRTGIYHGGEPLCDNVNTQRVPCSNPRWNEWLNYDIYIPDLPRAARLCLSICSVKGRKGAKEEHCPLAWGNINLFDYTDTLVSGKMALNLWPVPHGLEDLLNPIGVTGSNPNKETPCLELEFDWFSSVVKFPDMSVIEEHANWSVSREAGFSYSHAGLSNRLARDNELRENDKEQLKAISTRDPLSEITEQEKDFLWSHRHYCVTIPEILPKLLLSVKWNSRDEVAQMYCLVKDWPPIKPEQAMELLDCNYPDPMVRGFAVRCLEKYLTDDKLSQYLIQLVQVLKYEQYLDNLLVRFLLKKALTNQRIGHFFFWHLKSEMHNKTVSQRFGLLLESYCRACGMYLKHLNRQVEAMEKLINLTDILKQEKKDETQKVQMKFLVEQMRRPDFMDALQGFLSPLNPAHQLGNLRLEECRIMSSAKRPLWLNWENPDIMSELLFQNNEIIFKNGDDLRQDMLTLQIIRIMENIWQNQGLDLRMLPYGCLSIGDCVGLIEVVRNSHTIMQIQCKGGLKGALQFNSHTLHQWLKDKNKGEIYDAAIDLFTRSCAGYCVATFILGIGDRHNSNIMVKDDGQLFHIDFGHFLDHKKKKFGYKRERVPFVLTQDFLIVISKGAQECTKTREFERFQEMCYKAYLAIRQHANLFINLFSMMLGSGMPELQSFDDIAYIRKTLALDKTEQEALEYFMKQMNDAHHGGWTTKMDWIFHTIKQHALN
T1 sequence (P48736 whole entry): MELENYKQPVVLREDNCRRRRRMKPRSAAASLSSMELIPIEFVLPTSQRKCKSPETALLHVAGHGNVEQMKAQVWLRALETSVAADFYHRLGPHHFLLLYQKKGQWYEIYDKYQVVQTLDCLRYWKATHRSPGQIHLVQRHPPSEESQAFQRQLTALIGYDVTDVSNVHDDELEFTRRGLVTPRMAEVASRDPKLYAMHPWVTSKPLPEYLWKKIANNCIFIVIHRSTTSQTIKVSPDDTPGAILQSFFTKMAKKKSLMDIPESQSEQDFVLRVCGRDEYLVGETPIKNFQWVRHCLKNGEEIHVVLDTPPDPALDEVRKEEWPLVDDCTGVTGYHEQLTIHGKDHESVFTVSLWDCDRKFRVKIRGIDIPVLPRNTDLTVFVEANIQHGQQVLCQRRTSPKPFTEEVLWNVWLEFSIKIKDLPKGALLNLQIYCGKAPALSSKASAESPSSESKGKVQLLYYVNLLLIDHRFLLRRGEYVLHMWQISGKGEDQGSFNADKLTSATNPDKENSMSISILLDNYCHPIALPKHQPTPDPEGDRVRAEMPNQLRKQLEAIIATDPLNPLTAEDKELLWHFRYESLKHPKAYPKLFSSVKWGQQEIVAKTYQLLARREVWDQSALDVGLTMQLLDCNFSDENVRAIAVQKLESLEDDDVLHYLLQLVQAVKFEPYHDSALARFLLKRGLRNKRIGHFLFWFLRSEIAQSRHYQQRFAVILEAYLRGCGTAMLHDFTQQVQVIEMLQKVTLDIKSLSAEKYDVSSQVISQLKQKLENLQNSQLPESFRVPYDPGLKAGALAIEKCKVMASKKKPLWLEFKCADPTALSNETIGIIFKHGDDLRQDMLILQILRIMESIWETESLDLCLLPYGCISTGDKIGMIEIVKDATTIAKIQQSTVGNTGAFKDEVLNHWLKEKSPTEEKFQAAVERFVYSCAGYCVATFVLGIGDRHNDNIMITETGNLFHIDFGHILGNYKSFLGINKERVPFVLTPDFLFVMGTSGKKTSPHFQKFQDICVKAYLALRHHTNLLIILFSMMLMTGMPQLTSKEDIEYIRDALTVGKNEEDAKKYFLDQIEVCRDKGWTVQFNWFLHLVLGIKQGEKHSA
T5 sequence (P42338 whole entry): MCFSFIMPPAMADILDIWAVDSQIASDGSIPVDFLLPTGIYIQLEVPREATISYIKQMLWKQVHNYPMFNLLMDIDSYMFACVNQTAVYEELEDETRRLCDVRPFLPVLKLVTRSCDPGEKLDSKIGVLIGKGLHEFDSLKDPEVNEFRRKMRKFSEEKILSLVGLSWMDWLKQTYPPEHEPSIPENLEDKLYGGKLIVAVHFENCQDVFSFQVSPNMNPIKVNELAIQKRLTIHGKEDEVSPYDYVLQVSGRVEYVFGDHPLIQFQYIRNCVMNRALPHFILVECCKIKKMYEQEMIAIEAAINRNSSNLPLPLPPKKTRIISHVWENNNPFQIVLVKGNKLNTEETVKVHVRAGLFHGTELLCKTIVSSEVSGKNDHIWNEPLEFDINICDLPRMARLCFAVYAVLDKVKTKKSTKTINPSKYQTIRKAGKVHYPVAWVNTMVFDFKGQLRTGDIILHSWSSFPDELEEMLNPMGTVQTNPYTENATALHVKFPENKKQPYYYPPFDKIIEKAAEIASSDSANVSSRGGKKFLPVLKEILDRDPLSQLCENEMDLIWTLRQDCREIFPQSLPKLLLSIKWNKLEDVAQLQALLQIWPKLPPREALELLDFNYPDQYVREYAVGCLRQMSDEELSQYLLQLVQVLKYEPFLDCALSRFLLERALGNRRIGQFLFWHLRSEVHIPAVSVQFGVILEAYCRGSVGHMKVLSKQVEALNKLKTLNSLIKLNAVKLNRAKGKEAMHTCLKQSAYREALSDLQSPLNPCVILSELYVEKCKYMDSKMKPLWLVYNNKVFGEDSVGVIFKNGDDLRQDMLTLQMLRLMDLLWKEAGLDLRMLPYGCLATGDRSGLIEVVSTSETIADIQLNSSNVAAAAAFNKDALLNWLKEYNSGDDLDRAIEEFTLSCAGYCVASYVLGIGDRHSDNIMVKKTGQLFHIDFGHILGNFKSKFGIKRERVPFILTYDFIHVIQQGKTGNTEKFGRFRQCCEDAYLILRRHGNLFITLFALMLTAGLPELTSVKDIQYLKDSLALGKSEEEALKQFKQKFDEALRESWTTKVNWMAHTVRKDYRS

Row | IC50 ([1]; Homo sapiens, PC-3, 1 h) | Kd [2] | Kd [3] | Kd [4] | Kd [5] | Kd [6] | melting point | IC50 ([7]; Homo sapiens, PC-3, 1 h) | IC50 [1] | IC50 [7] | Compound
1 | > 513 nM | > 30200 nM | > 30200 nM | > 30200 nM | > 30200 nM | 1260 nM | 130 °C | > 513 nM | – | – | CC(Nc1cc(F)cc(F)c1)c1cc(C(=O)N2CCN(CC(F)(F)F)CC2)cc2ncc(N3CCOCC3)nc12 (single isomer, unassigned) [Compound 172]
2 | – | > 30200 nM | > 30200 nM | > 30200 nM | 26300 nM | 1200 nM | 80 °C | – | > 513 nM | > 513 nM | CNCCOCCN(C)C(=O)c1cc(C(C)Nc2cc(F)cc(F)c2)c2nc(N3CCOCC3)cnc2c1 (single isomer, unassigned) [Compound 174]
3 | ~398 nM | 17800 nM | 5010 nM | > 30200 nM | 20400 nM | 117 nM | 134 °C | – | – | ~447 nM | CC(Nc1cc(F)cc(F)c1)c1cc(C(=O)N(C)CCN(C)C)cc2ncc(N3CCOCC3)nc12 (single isomer, unassigned) [Compound 181]
4 | – | 2290 nM | 851 nM | 16200 nM | 182 nM | 1 nM | 80 °C | – | 15 nM | 22 nM | CC(Nc1cc(F)cc(F)c1)c1cc(C(=O)NCCO)cc2ncc(N3CCOCC3)nc12 (single isomer, unassigned) [Compound 188]
5 | – | > 30200 nM | > 30200 nM | > 30200 nM | > 30200 nM | 9120 nM | 229 °C | – | > 513 nM | > 513 nM | CC(Nc1cc(F)cc(F)c1)c1cc(CN2CCOCC23COC3)cc2ncc(N3CCOCC3)nc12 (single isomer, unassigned) [Compound 192]
6 | 309 nM | 11700 nM | 4900 nM | 28800 nM | 5490 nM | 68 nM | 140 °C | > 513 nM | – | – | CC(Oc1cc(F)cc(F)c1)c1cc(C(=O)NCCO)cc2ncc(N3CCOCC3)nc12 (single isomer, unassigned) [Compound 199]
7 | – | 4450 nM | 1460 nM | 16500 nM | 710 nM | 2 nM | 70 °C | – | 26 nM | 42 nM | CC(Nc1cc(F)cc(F)c1)c1cc(C(=O)NC[C@@H](C)O)cc2ncc(N3CCOCC3)nc12 (single isomer, unassigned) [Compound 201]
8 | – | 6610 nM | 1660 nM | 21400 nM | 912 nM | 5 nM | 118 °C | – | 44 nM | 98 nM | COCCNC(=O)c1cc(C(C)Nc2cc(F)cc(F)c2)c2nc(N3CCOCC3)cnc2c1 (single isomer, unassigned) [Compound 203]
9 | – | 14500 nM | > 30200 nM | > 30200 nM | > 30200 nM | 1070 nM | 80 °C | – | > 513 nM | > 513 nM | COCCNC(=O)c1cc(C(C)Nc2cc(F)cc(F)c2)c2nc(N3CCOCC3)cnc2c1 (single isomer, unassigned) [Compound 204]
10 | – | > 30200 nM | > 30200 nM | > 30200 nM | > 30200 nM | 7080 nM | 80 °C | – | > 513 nM | > 513 nM | CC(Nc1cc(F)cc(F)c1)c1cc(CN2C[C@@H](C)O[C@@H](C)C2)cc2ncc(N3CCOCC3)nc12 (single isomer, unassigned) [Compound 206]
11 | – | > 30200 nM | 3160 nM | > 30200 nM | 1020 nM | 12 nM | 80 °C | – | 151 nM | 245 nM | CC(Nc1cc(F)cc(F)c1)c1cc(CN2CCn3nccc3C2)cc2ncc(N3CCOCC3)nc12 (single isomer, unassigned) [Compound 210]
12 | – | 3600 nM | 3370 nM | 20200 nM | 190 nM | 1 nM | 206 °C | – | 22 nM | 36 nM | CC(C)NCCNC(=O)c1cc(C(C)Nc2cc(F)cc(F)c2)c2nc(N3CCOCC3)cnc2c1 (single isomer, unassigned) [Compound 211]
13 | – | 5070 nM | 7090 nM | 13800 nM | 3290 nM | 12 nM | 204 °C | – | 328 nM | 398 nM | CC(C)NCCNC(=O)c1cc(C(C)Nc2cc(F)cc(F)c2)c2nc(N3CCOCC3)cnc2c1 (single isomer, unassigned) [Compound 212]
14 | – | 3240 nM | 2090 nM | 7760 nM | 269 nM | 2 nM | 80 °C | – | 25 nM | 33 nM | CC(Nc1cc(F)c(F)c(F)c1)c1cc(C(=O)NCCO)cc2ncc(N3CCOCC3)nc12 (single isomer, unassigned) [Compound 213]
15 | – | > 30200 nM | > 30200 nM | > 30200 nM | > 30200 nM | 759 nM | 163 °C | – | > 513 nM | > 513 nM | CC(Nc1cc(F)cc(F)c1)c1cc(CN2CCn3nccc3C2)cc2ncc(N3CCOCC3)nc12 (single isomer, unassigned) [Compound 222]
16 | 87 nM | 2510 nM | 4680 nM | > 30200 nM | 537 nM | 6 nM | 80 °C | 102 nM | – | – | CC(Nc1cc(F)cc(F)c1)c1cc(C=NO)cc2ncc(N3CCOCC3)nc12 (single isomer, unassigned) [Compound 225]
17 | – | 3800 nM | 1780 nM | > 30200 nM | 339 nM | 1 nM | 80 °C | – | 20 nM | 27 nM | CC(C)NCCNC(=O)c1cc(C(C)Nc2cccc(F)c2)c2nc(N3CCOCC3)cnc2c1 (single isomer, unassigned) [Compound 227]
18 | – | 5010 nM | 105 nM | > 30200 nM | 204 nM | 1 nM | 120 °C | – | 4 nM | 6 nM | CC(Nc1cc(F)cc(F)c1)c1cc(C(=O)N2CCNC(C(F)(F)F)C2)cc2ncc(N3CCOCC3)nc12 (single isomer, unassigned) [Compound 237a]
19 | > 513 nM | 100 nM | 39 nM | 1480 nM | 69 nM | 0.5 nM | 160 °C | > 513 nM | – | – | CC(Nc1cc(F)cc(F)c1)c1cc(C(=O)NS(N)(=O)=O)cc2ncc(N3CCOCC3)nc12 (single isomer, unassigned) [Compound 243a]
20 | – | 1950 nM | 1660 nM | 1350 nM | 3390 nM | 14 nM | 200 °C | – | > 513 nM | > 513 nM | CC(Nc1cc(F)cc(F)c1)c1cc(C(=O)NS(N)(=O)=O)cc2ncc(N3CCOCC3)nc12 (single isomer, unassigned) [Compound 243b]
